US20020035061A1, “COMPOSITIONS AND METHODS FOR TREATING INFECTIONS USING CATIONIC PEPTIDES ALONE OR IN COMBINATION WITH ANTIBIOTICS” (priority 1996, published 2002)
Read-outs that look alike come from different tables or passages of the source.

Legend:
bacterial isolates = assay: microbe, parasite or virus in culture; format: cell-based
E. cloacae = format: cell-based
[1] = tested on: microorganisms with acquired resistance; assay: microbe, parasite or virus in culture; format: cell-based
E. faecalis = format: cell-based; details: for MIC, Peptide: unmodified parent peptide
H. influenzae = assay: Agarose dilution assay (MIC); format: cell-based; details: H. influenzae strain HIN002
[2] = tested on: MSSA (Smith, ATCC # 19640); assay: In vivo efficacy, MSSA infection; design: species or system S. aureus; details: formulation D, 60 min post-infection, end of eight day observation
S. aureus = format: cell-based; details: for MIC, Peptide: unmodified parent peptide
S. epidermidis = format: cell-based; details: S. epidermidis strain SE003
K. pneumoniae = format: cell-based
S. pyogenes = assay: Agarose dilution assay (MIC); format: cell-based; details: S. pyogenes strain SPY006
E. faecium = format: cell-based; details: E. faecium strain EFM003
P. aeruginosa = format: cell-based
A. calcoaceticus = format: cell-based
S. pneumoniae = assay: Agarose dilution assay (MIC); format: cell-based
S. maltophilia = format: cell-based
S. marcescens = format: cell-based
[3] = tested on: inherently resistant microorganisms; assay: microbe, parasite or virus in culture; format: cell-based; details: S. aureus
E. coli = format: cell-based
[4] = A. baumannii ABI001, Tobramycin section
[5] = P. aeruginosa 23, Piperacillin section
[6] = P. aeruginosa PA032, Tobramycin section
[7] = S. aureus SA014 (also SA014 MRSA)
[8] = S. maltophilia SMA029, Tobramycin section
[9] = S. maltophilia SMA030, Tobramycin section
[10] = peptide + Piperacillin, P. aeruginosa 23
[11] = peptide + Tobramycin, A. baumannii ABI001
[12] = peptide + Tobramycin, P. aeruginosa PA032
[13] = peptide + Tobramycin, S. maltophilia SMA029
[14] = peptide + Tobramycin, S. maltophilia SMA030

ILKKWVWWPWRRK [MBI 11F3CN]
Peptide MIC + Tobramycin (bacterial isolates; A. baumannii ABI001): 16 µg/mL | Tobramycin MIC + Peptide (bacterial isolates; A. baumannii ABI001): 0.5 µg/mL | Peptide MIC Alone (bacterial isolates; [4]): 32 µg/mL | Peptide MIC + Tobramycin (bacterial isolates; A. baumannii ABI002): 8 µg/mL | Tobramycin MIC + Peptide (bacterial isolates; A. baumannii ABI002): 2 µg/mL | Peptide MIC Alone (bacterial isolates; A. baumannii ABI002, Tobramycin section): 16 µg/mL | Peptide MIC + Piperacillin (bacterial isolates; P. aeruginosa 23): 0.5 µg/mL | Piperacillin MIC + Peptide (bacterial isolates; P. aeruginosa 23): 64 µg/mL | Peptide MIC Alone (bacterial isolates; [5]): 64 µg/mL | Peptide MIC + Piperacillin (bacterial isolates; P. aeruginosa 41): 64 µg/mL | Piperacillin MIC + Peptide (bacterial isolates; P. aeruginosa 41): 4 µg/mL | Peptide MIC Alone (bacterial isolates; P. aeruginosa 41, Piperacillin section): 128 µg/mL | Peptide MIC + Tobramycin (bacterial isolates; P. aeruginosa PA032): 64 µg/mL | Tobramycin MIC + Peptide (bacterial isolates; P. aeruginosa PA032): 4 µg/mL | Peptide MIC Alone (bacterial isolates; [6]): >128 µg/mL | Piperacillin MIC + Peptide (bacterial isolates; S. aureus 19 MRSA): 32 µg/mL | Peptide MIC Alone (bacterial isolates; S. aureus 19 MRSA, Piperacillin section): 4 µg/mL | Peptide MIC + Tobramycin (bacterial isolates; [7]): 2 µg/mL | Tobramycin MIC + Peptide (bacterial isolates; [7]): 2 µg/mL | Peptide MIC Alone (bacterial isolates; S. aureus SA014 (also SA014 MRSA), Tobramycin section): 4 µg/mL | Peptide MIC + Piperacillin (bacterial isolates; S. aureus SB3MRSA): 2 µg/mL | Piperacillin MIC + Peptide (bacterial isolates; S. aureus SB3MRSA): 64 µg/mL | Peptide MIC Alone (bacterial isolates; S. aureus SB3MRSA, Piperacillin section): 8 µg/mL | Peptide MIC + Tobramycin (bacterial isolates; S. haemolyticus SHA005): 2 µg/mL | Tobramycin MIC + Peptide (bacterial isolates; S. haemolyticus SHA005): 0.25 µg/mL | Peptide MIC Alone (bacterial isolates; S. haemolyticus SHA005, Tobramycin section): 4 µg/mL | Peptide MIC + Tobramycin (bacterial isolates; S. maltophilia SMA029): 4 µg/mL | Tobramycin MIC + Peptide (bacterial isolates; S. maltophilia SMA029): 32 µg/mL | Peptide MIC Alone (bacterial isolates; [8]): 128 µg/mL | Peptide MIC + Tobramycin (bacterial isolates; S. maltophilia SMA030): 32 µg/mL | Tobramycin MIC + Peptide (bacterial isolates; S. maltophilia SMA030): 1 µg/mL | Peptide MIC Alone (bacterial isolates; [9]): 128 µg/mL | FIC (bacterial isolates; [10]): 0.51 | FIC (bacterial isolates; peptide + Piperacillin, P. aeruginosa 41): 0.63 | FIC (bacterial isolates; peptide + Piperacillin, S. aureus 19 MRSA): 0.38 | FIC (bacterial isolates; peptide + Piperacillin, S. aureus SB3MRSA): 0.50 | FIC (bacterial isolates; [11]): 0.53 | FIC (bacterial isolates; peptide + Tobramycin, A. baumannii ABI002): 1.00 | FIC (bacterial isolates; [12]): 0.50 | FIC (bacterial isolates; peptide + Tobramycin, S. aureus SA014 (also SA014 MRSA)): 0.51 | FIC (bacterial isolates; peptide + Tobramycin, S. haemolyticus SHA005): 0.56 | FIC (bacterial isolates; [13]): 0.28 | FIC (bacterial isolates; [14]): 0.26 | MIC, Peptide (E. cloacae; E. cloacae ECL007, unmodified parent peptide): >128 µg/mL | MIC (E. cloacae; E. cloacae strain ECL007): >128 µg/mL | Peptide MIC + Tobramycin ([1]; A. baumannii ABI001): 16 µg/mL | Tobramycin MIC + Peptide ([1]; A. baumannii ABI001): 0.5 µg/mL | Peptide MIC Alone [1, 4]: 32 µg/mL | Peptide MIC + Piperacillin ([1]; A. calcoaceticus 3): 4 µg/mL | Piperacillin MIC + Peptide ([1]; A. calcoaceticus 3): 16 µg/mL | Peptide MIC Alone ([1]; A. calcoaceticus 3, Piperacillin section): 32 µg/mL | Peptide MIC + Piperacillin ([1]; P. aeruginosa 7): 64 µg/mL | Piperacillin MIC + Peptide ([1]; P. aeruginosa 7): 64 µg/mL | Peptide MIC Alone ([1]; P. aeruginosa 7, Piperacillin section): 128 µg/mL | Peptide MIC + Piperacillin ([1]; P. aeruginosa 23): 0.5 µg/mL | Piperacillin MIC + Peptide ([1]; P. aeruginosa 23): 64 µg/mL | Peptide MIC Alone [1, 5]: 64 µg/mL | Peptide MIC + Tobramycin ([1]; P. aeruginosa PA032): 64 µg/mL | Tobramycin MIC + Peptide ([1]; P. aeruginosa PA032): 4 µg/mL | Peptide MIC Alone [1, 6]: >128 µg/mL | Peptide MIC + Piperacillin ([1]; S. maltophilia 2): 16 µg/mL | Piperacillin MIC + Peptide ([1]; S. maltophilia 2): 16 µg/mL | Peptide MIC Alone ([1]; S. maltophilia 2, Piperacillin section): 32 µg/mL | Peptide MIC + Tobramycin ([1]; S. maltophilia SMA029): 32 µg/mL | Tobramycin MIC + Peptide ([1]; S. maltophilia SMA029): 1 µg/mL | Peptide MIC Alone [1, 8]: 128 µg/mL | Peptide MIC + Tobramycin ([1]; S. maltophilia SMA030): 32 µg/mL | Tobramycin MIC + Peptide ([1]; S. maltophilia SMA030): 1 µg/mL | Peptide MIC Alone [1, 9]: 128 µg/mL | FIC ([1]; peptide + Piperacillin, A. calcoaceticus 3): 0.63 | FIC ([1]; peptide + Piperacillin, P. aeruginosa 7): 1.00 | FIC [1, 10]: 0.51 | FIC ([1]; peptide + Piperacillin, S. maltophilia 2): 0.75 | FIC [1, 11]: 0.53 | FIC [1, 12]: 0.50 | FIC [1, 13]: 0.26 | FIC [1, 14]: 0.26 | MIC, Peptide (E. faecalis; E. faecalis EFS001): 32 µg/mL | MIC, Peptide (E. faecalis; E. faecalis EFS004): 16 µg/mL | MIC, Peptide (E. faecalis; E. faecalis EFS008): 16 µg/mL | MIC (E. faecalis; E. faecalis strain EFS002): 8 µg/mL | MIC (H. influenzae): >128 µg/mL | % Survival ([2]; 12 mg/kg ip): 0% | % Survival ([2]; 18 mg/kg ip): 10% | % Survival ([2]; 24 mg/kg ip): 90% | MIC, Peptide (S. aureus; S. aureus SA010): 2 µg/mL | MIC, Peptide (S. aureus; S. aureus SA011): 8 µg/mL | MIC, Peptide (S. aureus; S. aureus SA014): 8 µg/mL | MIC, Peptide (S. aureus; S. aureus SA018): 16 µg/mL | MIC, Peptide (S. aureus; S. aureus SA025): 2 µg/mL | MIC, Peptide (S. aureus; S. aureus SA093): 1 µg/mL | MIC (S. aureus; S. aureus strain SA005): 2 µg/mL | MIC (S. epidermidis): 2 µg/mL | MIC, Peptide (K. pneumoniae; K. pneumoniae KP001, unmodified parent peptide): 64 µg/mL | MIC (K. pneumoniae; K. pneumoniae strain KP002): 64 µg/mL | MIC (S. pyogenes): 8 µg/mL | MIC (E. faecium): 4 µg/mL | MIC, Peptide (P. aeruginosa; P. aeruginosa PA004, unmodified parent peptide): 128 µg/mL | MIC (P. aeruginosa; P. aeruginosa strain PA041): 128 µg/mL | MIC, Peptide (A. calcoaceticus; A. calcoaceticus AC002, unmodified parent peptide): 2 µg/mL | MIC (A. calcoaceticus; A. calcoaceticus strain AC002): 4 µg/mL | MIC (S. pneumoniae; S. pneumoniae strain SBSPN3): >128 µg/mL | MIC (S. pneumoniae; S. pneumoniae strain SPN044): >128 µg/mL | MIC, Peptide (S. maltophilia; S. maltophilia SMA002, unmodified parent peptide): 64 µg/mL | MIC (S. maltophilia; S. maltophilia strain SMA002): 64 µg/mL | MIC, Peptide (S. marcescens; S. marcescens SMS003, unmodified parent peptide): >128 µg/mL | MIC (S. marcescens; S. marcescens strain SMS004): >128 µg/mL | Peptide MIC + Tobramycin [3]: 2 µg/mL | Peptide MIC Alone ([3]; Tobramycin section): 4 µg/mL | FIC ([3]; peptide + Tobramycin): 0.51 | MIC, Peptide (E. coli; E. coli ECO005, unmodified parent peptide): 16 µg/mL | MIC (E. coli; E. coli strain ECO002): 8 µg/mL
